Measured values: patent US9415017B2, “Bacterial ghosts for mediating innate immunity” (priority 2010, dated 2016)

Columns and labels:
[1] = test system: NO production in RAW 264.7 cells; experiment: nitrite assay (Griess reaction) for NO production; assay type: cell-based, murine; settings: for impact on BG-induced NO-generation: NO after 20 hours
Procedure: RAW 264.7 cells were seeded in 96 well plates and were cultured for two days. […] Thereafter, the bacterial ghost suspensions were removed by twice washing with PBS and the cells were incubated for another 20 hours in the dark at 37° C. 5% CO2. In order to investigate the stimulatory impact of pure LPS (Fluka; E. coli serotype 055:B5), long-term incubation experiments with various LPS concentrations were conducted for 20 hours.
As an indicater of NO production, nitrite concentration was measured in the supernatant of the macrophages by use of the Griess reaction (Green et al., 1982 Anal Biochem. 126(1): p. 131-8). In short, 100 μl of each supernatant was mixed with 90 μl 1% sulphanilamide (Fluka) in 5% H3PO4 and 90 μl of N-(1-Naphthyl) ethylene diamine dihydrochloride in water. The absorbance was determined at 550 nm with an ELISA reader (Tecan Sunrise).

RAW 264.7 cells = experiment: neutral red cytotoxicity assay; assay type: cell-based, murine
Text: The neutral red assay was used to test the impact of empty or RV-loaded BGs as well as the chemical per se on the viability of RAW 264.7 cells. Neutral red (3-amino-m-dimethylamino-2methyl-phenazine hydrochloride) selectivly accumulates in lysosomes of living cells (Repetto et al. 2008. Nat Protoc, 2008. 3(7): p. 1125-31) and provides therefore a quantitative assessment of viablitity.
Individual wells of 96-well plates were inoculated with 1.25×10^5 cells and were allowed to attach overnight. Macrophages were treated with 200 μl medium containing RV-loaded and unloaded BGs (all resuspended in sf-medium) in different BG to cell ratios (10, 100, 1000) or with RV alone for either 20 min followed by a 20 hour recovery period or 24 hours. The same conditions were performed with two RV-concentrations (15 μM and 30 μM). Triton X-100 (0.01%) served as a positive control and cells treated with test medium represent the negative control. After treatment, the cells were washed twice with PBS and were incubated either with culture medium for 20 hours or directly with 100 μl of NR (80 μg/ml final concentration) for another two hours (37° C.; 5% CO2). Thereafter, the dye was discarded and the wells were washed two times with PBS. Extraction of the dye was accomplished by addition of 100 μl of the acidic destaining solution (1 ml acetic acid, 73 ml 96% ethanol and 26 ml deionized water). The plates were shaken for 10 min and the developed color was measured by a plate reader (Dynex OpsysMR) at 570 nm (reference wavelength 690 nm).

In the case of `Oc1ccc(C=Cc2cc(O)cc(O)c2)cc1` [RV, resveratrol], the “impact on BG-induced NO-generation” value ([1]; 0.3 μM and 0.3 μM RV with empty BGs at ratio 500, 20 min) is reported as “no impact”, the “impact on BG-induced NO-generation” value ([1]; 30 μM RV with empty BGs at ratio 500, 20 min) is reported as “Statistically significant difference” and the “reduction of nitrite compared to empty BGs alone” value ([1]; BG to cell ratio of 100, RV-loaded ghosts or 3 μM RV with empty BGs) is reported as “no effect”. The “reduction of NO compared to empty BGs alone” value ([1]; MOI of 1000, RV-ghosts or 3 μM RV coevally with empty BGs) was “reduction”, the cell viability (RAW 264.7 cells; 15 μM RV) was “no impact at all” and the cell viability (RAW 264.7 cells; 30 μM RV) was 81.23 ± 10.6%. The loss of viability (RAW 264.7 cells; 30 μM RV) was 20% and the cell viability (RAW 264.7 cells; short-term coincubation (20 min, measured after 20 hours)) was “no effects”.
